Measured values: patent US20090298150A1, “PRODUCTION OF SQUALENE USING YEAST” (priority 2008, published 2009)

What was measured:
[1] = test system: Yarrowia lipolytica ATCC 90904; experiment: Cultivation of Yarrowia lipolytica in CYM001 media with supplements; squalene and lipid production; assay type: cell-based; details: 30° C., 300 rpm, 120 h
Description: Environmental manipulations are tested to increase the net yield of squalene. These include (a) inhibiting ACCase expression and/or activity with oleic acid, olive or other vegetable oil(s), inositol, choline, soraphen, fluazifop, and clethodim or other ACCase inhibiting herbicides, (b) inhibiting squalene epoxidase expression and/or activity with terbinafine, tolnaftate, and ergosterol or other squalene epoxidase inhibiting fungicides, (c) manipulating the C/N ratio in glycerol-based media (in the starting media or by add-ins), (d) varying the nitrogen source in the media (organic vs. inorganic vs. simple/complex), (e) varying carbon addition regimes (e.g. batch vs. feeding), (f) examining the effect of depleting nutrients other than carbon source, (g) varying the carbon source to include mixtures of sugars, sugar alcohols, alcohols, polyalcohols, and organic acids, (h) selecting for growth on HMGR-inhibitory compounds such as lovastatin or other statin-type inhibitors, and (i) selecting for high oil production in culture using lipophillic dyes or stains and/or by analyzing for extractable lipids using, for example, gravimetric or gas chromatographic methods.
For example, Yarrowia lipolytica ATCC 90904 was cultivated in high Carbon/Nitrogen ratio media (C/N=420, Li, Y-H., Liu, B., Zhao, Z-B., and Bai, F-W. 2006 “Optimized Culture Medium and Fermentation Conditions for Lipid Production by Rhodosporidium toruloides” Chinese Journal of Biotechnology 22(4): 650-656) (hereinafter “CYM001 Media”) supplemented with 0 to 50 μg/ml terbinafine at 30° C., 300 rpm for 120 h. […]
In a further example, Yarrowia lipolytica ATCC 90904 was cultivated in CYM001 media supplemented with 0 to 200 μM clethodim at 30° C., 300 rpm for 120 h.

Cryptococcus curvatus = Cryptococcus curvatus growth on carbon sources (cell mass in culture); details: 12% w/v glycerol; Yeast Extract-based rich media; after 5 days
Description: Cryptococcus curvatus growth was evaluated to determine the best carbon sources to maximize its cell mass in culture. In a Yeast Extract-based rich media (10 g/L yeast extract, 20 g/L peptone), C. curvatus grew well in 2-20% w/v glucose, achieving a maximal level of 55 g/L cell dry weight (CDW) at 16% w/v glucose and above after 4 days. Similarly, C. curvatus grew in the same media with 3-12% w/v glycerol, achieving a CDW of 40 g/L in 12% w/v glycerol after 5 days. C. curvatus was also grown in Biodiesel glycerol (Imperial Western Products, Coachella, Calif.) up to 3.5% w/v, resulting in 23 g/L CDW.

CCCCCCCC/C=C\CCCCCCCC(=O)O [Oleic acid]
lipid accumulation, % lipid/CDW (cell dry weight) ([1]; 10 μl/ml Oleic acid, CYM001 media): 63.3 % lipid/CDW

CCSC(C)CC1CC(=O)C(/C(CC)=N/OC/C=C/Cl)=C(O)C1 (stereo not shown) [clethodim]
increase in the yield (mg) of squalene per 60-ml flask ([1]; 200 μM clethodim, CYM001 media): 60 fold

OCC(O)CO [glycerol]
cell dry weight (CDW) (Cryptococcus curvatus): 40 g/L

CN(C/C=C/C#CC(C)(C)C)Cc1cccc2ccccc12 [terbinafine]
squalene as % of total lipid ([1]; 12.5 μg/ml or higher terbinafine, CYM001 Media): up to 18.5%
